Here are results for two compounds from EP4729061A1, “USE OF AKT INHIBITOR IN PREPARATION OF DRUG FOR PREVENTING OR TREATING BREAST CANCER” (Nanjing Chia Tai Tianqing Pharmaceutical Co., Ltd., priority 2023, dated 2024).

Read-outs that look alike come from different tables or passages of the source. A value given as a limit tells only on which side of the number the result lay.

Data set [1] can be described thus: Clinical trial of the compound of Formula (A) tablets as monotherapy: pharmacokinetics. Format: in vivo, patients with advanced malignant solid tumors. The conditions noted are these: 400mg Monotherapy; for half-life / AUC(0-t) / Cmax / Vd/F: 400 mg. The source says: All contents of the trial protocol with registration number CTR20211999 on the China Drug Clinical Trial Registration and Information Disclosure Platform and results thereof are incorporated herein by reference.
Study Objectives: To evaluate the safety and tolerability of the compound of Formula (A) in patients with advanced malignant solid tumors (including breast cancer and ovarian cancer) who have failed standard treatment, and to explore the maximum tolerated dose (MTD) of the compound of Formula (A), and determine the recommended phase II dose (RP2D). To evaluate the pharmacokinetic (PK) characteristics of the compound of Formula (A) following a single dose and continuous administration for 21 days in patients with advanced solid tumors. To assess the preliminary efficacy of the compound of Formula (A) in the treatment of advanced solid tumors.
Trial Design: The study was an open-label, single-arm, non-randomized clinical trial focusing on safety, efficacy, and pharmacokinetics. The first part was the dose-finding phase, and the second part was the dose-expansion phase.
A starting dose of 20 mg of the compound of Formula (A) was selected, with successive dose-finding groups set as 20 mg, 50 mg, 100 mg, 200 mg, 300 mg, and 400 mg. The administration regimen included once-daily single-dose administration (with a 7-day washout period) and multiple-dose administration (continuous administration for 21 days, 28 days as one cycle, treatment continued until intolerable toxicity, disease progression, or subject withdrawal).
The dose-expansion phase was initiated after the completion of the dose-finding phase. Based on the results of dose escalation, the dosage for the dose-expansion group was determined, with oral administration once daily (continuous administration for 21 days, 28 days as one cycle, and treatment will be continued until intolerable toxicity, disease progression, or subject withdrawal).
1) Safety and Tolerability: Maximum Tolerated Dose (MTD) and Dose-Limiting Toxicity (DLT); 2) PK Indicators: See Tables 13 and 14 below; 3) Efficacy Indicators: Objective Response Rate (ORR), Disease Control Rate (DCR), Duration of Response (DOR), and Progression-Free Survival (PFS). Table 13. PK Indicators of the compound of Formula (A) monotherapy in the dose-finding phase

For a further data set, the system named is CAMA-1 Cells. Put plainly: Cell proliferation inhibition, CTG (CelltiterGlo) method, alone or combined with fulvestrant. Format: cell-based. The settings on record: compound alone; for IC50: Homo sapiens, CAMA-1, 168 h, 7 days. The procedure: a). BT-474 cells were cultured in Hybri-Care medium supplemented with 1% antibiotics and 10% FBS, and incubated in the condition of 37°C with 5% CO2; b). MCF-7 cells were cultured in EMEM medium supplemented with 1% antibiotics, 0.01 mg/mL insulin, and 10% FBS, and incubated in the condition of 37°C with 5% CO2; c). ZR-75-1 cells were cultured in RPMI-1640 medium supplemented with 1% antibiotics and 10% FBS, and incubated in the condition of 37°C with 5% CO2; d). T47D cells were cultured in RPMI-1640 medium supplemented with 1% antibiotics, 0.2 U/mL insulin, and 10% FBS, and incubated in the condition of 37°C with 5% CO2; e) CAMA-1 cells were cultured in EMEM medium supplemented with 1% antibiotics and 10% FBS, and incubated in the condition of 37°C with 5% CO2.
a). Cells were routinely cultured until reaching 80%-90% confluence and when the required cell number was reached, they were harvested; b). Resuspended in the corresponding medium, counted, and prepared into a cell suspension with appropriate density; c). The cell suspension was added to a 384-well plate at 40 µL per well. Table 1. Plating densities of different cell lines
d). The cells were cultured overnight in an incubator at 37°C with 5% CO2 .
a). The compound of Formula (A) was serially diluted 3-fold for 10 concentrations starting from a stock solution of 60 mM (using the monofumarate dihydrate of the compound of Formula (A), with the concentration calculated based on the free base of the compound of Formula (A); the compound of Formula (A) or salt thereof was prepared with reference to the preparation method disclosed in WO2022017448A1); b). […] Cells supplemented with DMSO served as control wells for high reading values; j). Cell-free medium served as control wells for low reading values. […]
a). […] The chemiluminescent signal values were read using an Envision instrument.
Using the inhibition rate data measured by monotherapy or single-concentration combination therapy in Section 2.4, IC50 was calculated with GraphPad Prism 8 software. […]

Where [2] appears, read: Multiple Doses, n=8, dose-expansion phase.
[3] abbreviates: human, in vivo, oral, Single Dose, n=10, dose-finding phase.

By CL/F is commonly meant clearance divided by bioavailability, as obtained after extravascular dosing. As usually defined, the half-life is how long it takes for the measured level to halve. The low end stands for fast loss, the high end for slow loss. What is called Cmax is the peak of the concentration-time curve. A word on the Tmax: it is the time at which the peak concentration occurs. In general, IC50 refers to the concentration needed to halve the response being measured. `CC(C)NC[C@@H](C(=O)N1CCN(c2ncnc3c2[C@H](C)CC(=O)N3)[C@H]2C[C@H]21)c1ccc(Cl)cc1` [The compound of Formula (A), (R)-4-((1S,6R)-5-((S)-2-(4-chlorophenyl)-3-(isopropylamino)propanoyl)-2,5-diazabicyclo[4.1.0]heptan-2-yl)-5-methyl-5,8-dihydropyrido[2,3-d]pyrimidin-7(6H)-one]: in data set [1] (setting [2]), the CLss/F is 155.88 ± 81.87 L/h, the “Cav,ss” value is 131.73 ± 64.21 ng/mL, the “Cmin,ss” value amounted to 33.76 ± 14.66 ng/mL and the “Tmax,ss” value was 3.00 [0,6.00] h. Also, the CL/F in data set [1] (Single Dose, n=10, dose-finding phase) came out at 186.378 ± 99.471 L/h. This compound also gave a half-life in data set [1] (human, in vivo, oral, Multiple Doses, n=8, dose-expansion phase) of 12.9 ± 4.19 h. Besides, the AUC(0-t) in data set [1] (human, in vivo, oral, Multiple Doses, n=8, dose-expansion phase, read-out: AUC0-t,ss) turned out to be 3530 ± 1770 ng·h/mL. In data set [1] (human, in vivo, oral, Multiple Doses, n=8, dose-expansion phase, read-out: Cmax,ss), the maximum concentration (Cmax) came out at 462 ± 245 ng/mL. The Vd/F in data set [1] (human, in vivo, oral, Multiple Doses, n=8, dose-expansion phase, read-out: Vss/F) amounted to 2880 ± 1670 L. Besides, in data set [1] (setting [3]), the half-life is 7.22 ± 1.91 h and the Tmax stood at 3 h. In addition, the AUC(0-t) in data set [1] (human, in vivo, oral, Single Dose, n=10, dose-finding phase, read-out: AUC0-t) was 2380 ± 1160 ng·h/mL. The maximum concentration (Cmax) in data set [1] (human, in vivo, oral, Single Dose, n=10, dose-finding phase, read-out: Cmax) stood at 392 ± 178 ng/mL. Moreover, the Vd/F in data set [1] (human, in vivo, oral, Single Dose, n=10, dose-finding phase, read-out: Vz/F) was determined as 1920 ± 1000 L. The AUC in data set [1] (human, in vivo, oral, Multiple Doses, n=8, dose-expansion phase, read-out: AUC0-τ) amounted to 3160 ± 1540 ng·h/mL. Further, in the data set on CAMA-1 Cells, the 50% inhibitory concentration (IC50) was 1.13 µM. Besides, in the data set with CAMA-1 Cells (maximum value fitted by GraphPad Prism 8), the “Maximum Inhibition Rate on CAMA-1 Cells” value was found to be 95.43%.

With `C[C@]12CC[C@@H]3c4ccc(O)cc4C[C@@H](CCCCCCCCC[S+]([O-])CCCC(F)(F)C(F)(F)F)[C@H]3[C@@H]1CC[C@@H]2O` (stereo partly drawn) [Fulvestrant, reference compound], the IC50 in the data set with CAMA-1 Cells was above 0.1 µM.
